According to patent US8735384B2, “Amino heteroaryl compounds as beta-secretase modulators and methods of use” (Amgen Inc., priority 2010, dated 2014):

What was measured:
BACE1 = BACE1 (Homo sapiens, UniProt P56817); experiment: In vitro enzymatic BACE FRET assay; assay type: biochemical; settings: beta secretase enzyme 0.2 nM, FRET substrate 50 nM, pH 4.2; read-out: BACE1 FRET assay (IC50 class)
How it was run: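 Beta-secretase (0.2 nM) was pre-incubated 1 h with serially diluted inhibitor in 0.05 M acetate pH 4.2, 10% DMSO, 100 uM genapol. Then 50 nM quenched peptide FRET substrate was added for 1 h. The reaction was stopped with Tris to neutral pH and fluorescence read ([…]).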

[1] = system: Aβ40 in conditioned medium of cells stably expressing Amyloid Precursor Protein (APP); experiment: In vitro BACE cell-based assay (HEK cell assay), Aβ40 sandwich ELISA; settings: Homo sapiens, HEK293, 24 h, inhibition of Aβ40, 24 h incubation, read-out: HEK cell assay (IC50 class)
How it was run: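 APP-stably expressing cells (40K/well) grown 24 h, then treated 24 h with 10-point doses from 100 μM or 10 μM top (0.1% DMSO). Secreted Aβ40 quantified by sandwich ELISA (pAb40 capture, biotinylated 6E10 detection, europium time-resolved fluorescence); IC50 from percent inhibition versus concentration.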

BACE1, sequence (P56817 46-501, species assumed): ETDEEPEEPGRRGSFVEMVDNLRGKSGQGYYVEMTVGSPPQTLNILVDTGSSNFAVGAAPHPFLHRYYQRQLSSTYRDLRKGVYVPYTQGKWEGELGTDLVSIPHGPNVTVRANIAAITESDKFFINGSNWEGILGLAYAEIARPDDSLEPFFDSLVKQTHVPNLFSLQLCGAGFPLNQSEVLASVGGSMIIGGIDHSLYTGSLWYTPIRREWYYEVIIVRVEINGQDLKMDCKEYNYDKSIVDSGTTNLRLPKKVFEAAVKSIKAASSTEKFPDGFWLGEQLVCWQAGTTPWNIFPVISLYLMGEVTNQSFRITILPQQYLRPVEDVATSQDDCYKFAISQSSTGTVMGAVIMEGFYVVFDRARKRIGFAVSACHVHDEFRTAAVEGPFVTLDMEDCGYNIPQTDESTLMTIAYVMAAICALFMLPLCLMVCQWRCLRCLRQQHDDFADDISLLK

## CCN(C)C(=O)c1cccc(C)c1-c1ccc2nc(N)c(N3CCOCC3)cc2c1 [Example 121, 2-(2-amino-3-morpholinoquinolin-6-yl)-N-ethyl-N,3-dimethylbenzamide]
BACE1
  IC50: 0.1 to 0.5 µM
[1]
  IC50: 1.01 to 5 µM

## Cc1cccc(C(=O)N(C)C2CCC(C)CC2)c1-c1ccc2nc(N)c(N3CCOCC3)cc2c1 (stereo not shown) [Example 122, 2-(2-amino-3-morpholinoquinolin-6-yl)-N,3-dimethyl-N-(4-methylcyclohexyl)benzamide]
BACE1
  IC50: < 0.1 µM
[1]
  IC50: 0.501 to 1 µM

## Cc1cccc(C(=O)N(C)C(C)(C)C)c1-c1ccc2nc(N)c(N3CCOCC3)cc2c1 [Example 123, 2-(2-amino-3-morpholinoquinolin-6-yl)-N-tert-butyl-N,3-dimethylbenzamide]
BACE1
  IC50: < 0.1 µM
[1]
  IC50: 0.501 to 1 µM

## Cc1cccc(C(=O)N2C(C)CCCC2C)c1-c1ccc2nc(N)c(N3CCOCC3)cc2c1 (stereo not shown) [Example 124, (2-(2-amino-3-morpholinoquinolin-6-yl)-3-methylphenyl)(2,6-dimethylpiperidin-1-yl)methanone]
BACE1
  IC50: < 0.1 µM
[1]
  IC50: 1.01 to 5 µM

## Cc1cccc(C(=O)N2C(C)C=CC2C)c1-c1ccc2nc(N)c(N3CCOCC3)cc2c1 (stereo not shown) [Example 125, (2-(2-amino-3-morpholinoquinolin-6-yl)-3-methylphenyl)(2,5-dimethyl-2,5-dihydro-1H-pyrrol-1-yl)methanone]
BACE1
  IC50: < 0.1 µM
[1]
  IC50: 0.501 to 1 µM

## Cc1cccc(C(=O)N(C)c2ccccc2)c1-c1ccc2nc(N)c(N3CCOCC3)cc2c1 [Example 126, 2-(2-amino-3-morpholinoquinolin-6-yl)-N,3-dimethyl-N-phenylbenzamide]
BACE1
  IC50: 0.1 to 0.5 µM
[1]
  IC50: 1.01 to 5 µM

## Cc1cccc(C(=O)Nc2ccccc2)c1-c1ccc2nc(N)c(N3CCOCC3)cc2c1 [Example 127, 2-(2-amino-3-morpholinoquinolin-6-yl)-3-methyl-N-phenylbenzamide]
BACE1
  IC50: 1.01 to 5 µM
[1]
  IC50: > 5 µM

## Nc1nc2ccc(-c3ccc(F)cc3C(=O)N3CCC3)cc2cc1N1CCOCC1 [Example 128, (2-(2-amino-3-morpholinoquinolin-6-yl)-5-fluorophenyl)(azetidin-1-yl)methanone]
BACE1
  IC50: 1.01 to 5 µM
[1]
  IC50: > 5 µM

## CCOC(=O)c1cc(F)cc(C)c1-c1ccc2nc(N)c(N3CCOCC3)cc2c1 [Example 129, ethyl 2-(2-amino-3-morpholinoquinolin-6-yl)-5-fluoro-3-methylbenzoate]
BACE1
  IC50: 0.1 to 0.5 µM
[1]
  IC50: 1.01 to 5 µM

## Cc1cc(F)cc(C(=O)N2CC[C@@H](F)C2)c1-c1ccc2nc(N)c(N3CCOCC3)cc2c1 [Example 130, (R)-(2-(2-amino-3-morpholinoquinolin-6-yl)-5-fluoro-3-methylphenyl)(3-fluoropyrrolidin-1-yl)methanone]
BACE1
  IC50: < 0.1 µM
[1]
  IC50: 0.1 to 0.5 µM

## Cc1ccc(N(C)C(=O)c2cccc(C)c2-c2ccc3nc(N)c(N4CCOCC4)cc3c2)cc1 [Example 131, 2-(2-amino-3-morpholinoquinolin-6-yl)-N,3-dimethyl-N-p-tolylbenzamide]
BACE1
  IC50: < 0.1 µM
[1]
  IC50: 1.01 to 5 µM

## COc1ccc(N(C)C(=O)c2cccc(C)c2-c2ccc3nc(N)c(N4CCOCC4)cc3c2)cc1 [Example 132, 2-(2-amino-3-morpholinoquinolin-6-yl)-N-(4-methoxyphenyl)-N,3-dimethylbenzamide]
BACE1
  IC50: < 0.1 µM
[1]
  IC50: 0.501 to 1 µM

## Cc1cccc(C(=O)N(C)[C@H](C)c2ccccc2)c1-c1ccc2nc(N)c(N3CCOCC3)cc2c1 [Example 133, (R)-2-(2-amino-3-morpholinoquinolin-6-yl)-N,3-dimethyl-N-(1-phenylethyl)benzamide]
BACE1
  IC50: < 0.1 µM
[1]
  IC50: 1.01 to 5 µM

## Cc1cccc(C(=O)N(C)C)c1-c1ccc2nc(N)c(N3CCOCC3)cc2c1 [Example 134, 2-(2-amino-3-morpholinoquinolin-6-yl)-N,N,3-trimethylbenzamide]
BACE1
  IC50: 0.1 to 0.5 µM
[1]
  IC50: 1.01 to 5 µM

## Cc1cccc(C(=O)N(C)Cc2cccc3ccccc23)c1-c1ccc2nc(N)c(N3CCOCC3)cc2c1 [Example 135, 2-(2-amino-3-morpholinoquinolin-6-yl)-N,3-dimethyl-N-(naphthalen-1-ylmethyl)benzamide]
BACE1
  IC50: 0.1 to 0.5 µM
[1]
  IC50: 1.01 to 5 µM

## Cc1cccc(C(=O)N(C)Cc2ccccc2)c1-c1ccc2nc(N)c(N3CCOCC3)cc2c1 [Example 136, 2-(2-amino-3-morpholinoquinolin-6-yl)-N-benzyl-N,3-dimethylbenzamide]
BACE1
  IC50: 0.1 to 0.5 µM
[1]
  IC50: 1.01 to 5 µM

## Cc1cccc(C(=O)N(C)CCc2ccccc2)c1-c1ccc2nc(N)c(N3CCOCC3)cc2c1 [Example 137, 2-(2-amino-3-morpholinoquinolin-6-yl)-N,3-dimethyl-N-phenethylbenzamide]
BACE1
  IC50: 0.1 to 0.5 µM
[1]
  IC50: 1.01 to 5 µM

## Cc1cccc(C(=O)N(C)c2ccc(F)cc2)c1-c1ccc2nc(N)c(N3CCOCC3)cc2c1 [Example 138, 2-(2-amino-3-morpholinoquinolin-6-yl)-N-(4-fluorophenyl)-N,3-dimethylbenzamide]
BACE1
  IC50: 0.1 to 0.5 µM
[1]
  IC50: 1.01 to 5 µM

## COc1ccccc1N(C)C(=O)c1cccc(C)c1-c1ccc2nc(N)c(N3CCOCC3)cc2c1 [Example 139, 2-(2-amino-3-morpholinoquinolin-6-yl)-N-(2-methoxyphenyl)-N,3-dimethylbenzamide]
BACE1
  IC50: < 0.1 µM
[1]
  IC50: 1.01 to 5 µM

## Nc1nc2cc(F)c(-c3ccccc3C(=O)N3CCCC3)cc2cc1N1CCOCC1 [Example 140, (2-(2-amino-7-fluoro-3-morpholinoquinolin-6-yl)phenyl)(pyrrolidin-1-yl)methanone]
BACE1
  IC50: 0.1 to 0.5 µM
[1]
  IC50: 1.01 to 5 µM

## Nc1nc2ccc(-c3cccc(Cl)c3C(=O)N3CCCC3)cc2cc1N1CCOCC1 [Example 141, (2-(2-amino-3-morpholinoquinolin-6-yl)-6-chlorophenyl)(pyrrolidin-1-yl)methanone]
BACE1
  IC50: 1.01 to 5 µM
[1]
  IC50: > 5 µM

## Nc1nc2ccc(-c3cccc(F)c3C(=O)N3CCCC3)cc2cc1N1CCOCC1 [Example 142, (2-(2-amino-3-morpholinoquinolin-6-yl)-6-fluorophenyl)(pyrrolidin-1-yl)methanone]
BACE1
  IC50: 1.01 to 5 µM
[1]
  IC50: > 5 µM

## Nc1nc2ccc(-c3c(Cl)cccc3C(=O)N3CCCCC3)cc2cc1N1CCOCC1 [Example 143, (2-(2-amino-3-morpholinoquinolin-6-yl)-3-chlorophenyl)(piperidin-1-yl)methanone]
BACE1
  IC50: < 0.1 µM
[1]
  IC50: 1.01 to 5 µM

## Nc1nc2ccc(-c3c(Cl)cccc3C(=O)N3CCOCC3)cc2cc1N1CCOCC1 [Example 144, (2-(2-amino-3-morpholinoquinolin-6-yl)-3-chlorophenyl)(morpholino)methanone]
BACE1
  IC50: 0.1 to 0.5 µM
[1]
  IC50: 1.01 to 5 µM

## Nc1nc2ccc(-c3ccccc3C(=O)OC3CCCC3)cc2cc1N1CCOCC1 [Example 145, cyclopentyl 2-(2-amino-3-morpholinoquinolin-6-yl)benzoate]
BACE1
  IC50: < 0.1 µM
[1]
  IC50: 0.501 to 1 µM

## Nc1nc2ccc(-c3ccccc3C(=O)N3CCCC3)cc2cc1N1CCOCC1 [Example 146, (2-(2-amino-3-morpholinoquinolin-6-yl)phenyl)(pyrrolidin-1-yl)methanone]
BACE1
  IC50: 0.1 to 0.5 µM
[1]
  IC50: 1.01 to 5 µM

## Nc1nc2ccc(-c3ccc(Cl)cc3C(=O)N3CCCC3)cc2cc1N1CCOCC1 [Example 147, (2-(2-amino-3-morpholinoquinolin-6-yl)-5-chlorophenyl)(pyrrolidin-1-yl)methanone]
BACE1
  IC50: 0.1 to 0.5 µM
[1]
  IC50: 1.01 to 5 µM

## Nc1nc2ccc(-c3c(F)cccc3C(=O)N3CCCC3)cc2cc1N1CCOCC1 [Example 148, (2-(2-amino-3-morpholinoquinolin-6-yl)-3-fluorophenyl)(pyrrolidin-1-yl)methanone]
BACE1
  IC50: 0.1 to 0.5 µM
[1]
  IC50: 1.01 to 5 µM

## Nc1nc2ccc(-c3ccccc3C(=O)C3CCCC3)cc2cc1N1CCOCC1 [Example 149, (2-(2-amino-3-morpholinoquinolin-6-yl)phenyl)(cyclopentyl)methanone]
BACE1
  IC50: 0.1 to 0.5 µM
[1]
  IC50: > 5 µM

## Cc1ccc(C(=O)N2CCCC2)c(-c2ccc3nc(N)c(N4CCOCC4)cc3c2)c1 [Example 150, (2-(2-amino-3-morpholinoquinolin-6-yl)-4-methylphenyl)(pyrrolidin-1-yl)methanone]
BACE1
  IC50: < 0.1 µM
[1]
  IC50: 0.1 to 0.5 µM

## Nc1nc2ccc(-c3ccccc3C(=O)c3ccccc3)cc2cc1N1CCOCC1 [Example 151, (2-(2-amino-3-morpholinoquinolin-6-yl)phenyl)(phenyl)methanone]
BACE1
  IC50: 0.1 to 0.5 µM
[1]
  IC50: 1.01 to 5 µM

## Nc1nc2ccc(-c3ccccc3C(=O)C3CCCCC3)cc2cc1N1CCOCC1 [Example 152, (2-(2-amino-3-morpholinoquinolin-6-yl)phenyl)(cyclohexyl)methanone]
BACE1
  IC50: < 0.1 µM
[1]
  IC50: 1.01 to 5 µM

## CC(C)(C)CC(=O)c1ccccc1-c1ccc2nc(N)c(N3CCOCC3)cc2c1 [Example 153, 1-(2-(2-amino-3-morpholinoquinolin-6-yl)phenyl)-3,3-dimethylbutan-1-one]
BACE1
  IC50: 0.1 to 0.5 µM
[1]
  IC50: > 5 µM

## Nc1nc2ccc(-c3cc(Cl)ccc3C(=O)N3CCCC3)cc2cc1N1CCOCC1 [Example 154, (2-(2-amino-3-morpholinoquinolin-6-yl)-4-chlorophenyl)(pyrrolidin-1-yl)methanone]
BACE1
  IC50: < 0.1 µM
[1]
  IC50: 0.501 to 1 µM

## Nc1nc2ccc(-c3c(C(=O)N4CCCC4)cccc3C(F)(F)F)cc2cc1N1CCOCC1 [Example 155, (2-(2-amino-3-morpholinoquinolin-6-yl)-3-(trifluoromethyl)phenyl)(pyrrolidin-1-yl)methanone]
BACE1
  IC50: 0.1 to 0.5 µM
[1]
  IC50: 1.01 to 5 µM
